Literature values in US20220409679A1, “COMPOSITIONS AND METHODS WITH A PROBIOTIC AND A NUTRIENT AND/OR MINERAL FOR THE PREVENTION OR TREATMENT OF MASTITIS” (SOCIETE DES PRODUITS NESTLE S.A., priority 2019, published 2022).

Legend:
mastitis in cows = details: O'Rourke 2009; for symptoms associated with mastitis: supplementation
[1] = O'Rourke 2009

SMILES	immune system (mastitis in cows)	symptoms associated with mastitis (mastitis in cows)	antibacterial activity in milk [1]
[Cu] [copper]	enhance the immune system	reduce mastitis symptoms in cows	
[Se] [selenium]		improves symptoms associated with mastitis in cows	improves antibacterial activity in milk
[Zn] [zinc]	enhance the immune system	reduce mastitis symptoms in cows	
